Common to all, as to format: in vivo
Data set [1] deals with ischemia-reperfusion model of AKI in mice (IR-AKI). Briefly: IR-AKI mice, pyridoxamine treatment started 24 hours after injury, renal fibrosis and injury markers at 28 days. Conditions: 1000 mg/kg/day started 24 hours after injury, day 28. The method, then: FIG. 3. […] (A) Experimental model. Mice underwent U-IR followed by contralateral nephrectomy 8 days after the initial surgery. Mice were treated with PYR 1000 mg/kg/day starting 24 hours after the initial injury supplemented with 200 mg PYR twice a day (or vehicle) by oral gavage for 3 days after each surgical procedure. Treatment was continued for 28 days at which point mice were sacrificed and kidney harvested for analysis. (B-D) Expression of renal fibrosis markers Col1α1, α-SMA and Col3α1 mRNA relative to Gapdh mRNA control. (E) Quantification of Sirius red stained (% total area). (F) Representative images for Sirius red stained tissues (outer medulla; scale bars, 50 μm). Results expressed as mean +/−SEM, n=8-10/group. Results indicated if ANOVA p<0.05: *p<0.05, **p<0.01, ***p<0.001, #p<0.0001. Comparison with uninjured (no brackets), or vehicle or delayed PYR treatment (brackets).
FIG. 4. No effects of treatment with PYR at 1000 mg/kg/day started 24 hours after injury on markers of renal injury 28 days after I/R-AKI. (A, B) Expression of renal injury markers Kim1 and NGAL mRNA relative to Gapdh mRNA control on day 28 after injury. Results expressed as mean +/−SEM, n=8-10/group. Results indicated if ANOVA p<0.05: *p<0.05, **p<0.01, ***p<0.001, #p<0.0001. Comparison with uninjured (no brackets), or vehicle or delayed PYR treatment (brackets).
(§1) Two doses of pyridoxamine were administered orally, 500 mg/kg/day and 1000 mg/kg/day to an experimental model of AM, the surgical, ischemia-reperfusion model of AKI in mice (IR-AKI) [Cianciolo Cosentino et al, 2013; Skrypnyk et al, 2013], a model of renal ischemia that has been used extensively to model ischemic injury associated with cardiac surgery acquired (CSA-AKI) [Thiele et al, 2015]. For the bulk of the studies pyridoxamine was administered for 3 days prior to the induction of AKI and was continued until completion of the studies. In some experiments, pyridoxamine was administered 24 hours after the induction of AM.
To determine whether delayed treatment with the high dose of pyridoxamine was effective in reducing post-injury fibrosis after IR-AKI, mice were treated with PYR 1000 mg/kg/day starting 24 hours after the initial injury supplemented with 200 mg PYR twice a day (or vehicle) by oral gavage for 3 days after each surgical procedure. Treatment was continued for 28 days at which point mice were sacrificed and kidney harvested for analysis (FIG. 3A).

Data set [2] shares this test system. Briefly: IR-AKI mice, pyridoxamine pre-treatment, renal injury and oxidative stress 3 days after injury. As to conditions: pre-treatment 1000 mg/kg/day, day 3 after injury, vs vehicle. The method, then:
FIG. 5. Dose dependent effect of pre-treatment with PYR at 500 and 1000 mg/kg/day on renal injury 3 days after I/R-AKI. (A) Experimental model, Mice underwent U-IR and were pre-treated for 3 days with either vehicle control, PYR 500 mg/kg/day or PYR 1000 mg/kg/day in drinking water supplemented with 200 mg PYR twice a day (or vehicle) by oral gavage for 3 days after the surgical procedure. Mice were sacrificed and kidney harvested for analysis 3 days after the initial injury. (B, C) Renal Kim1 and NGAL mRNA expression 3 days after injury expressed as the ratio to Gapdh mRNA control. (D) Tubular injury score 3 days after injury in the OM (0-4, arbitrary units). (E) Representative images for PAS stained tissues (outer medulla; scale bars, 50 μm) F) Expression renal isofuran/isoprostane ratios after
PYR treatment with 500 and 1000 mg/kg/day 3 days after LI-IR. Results expressed as mean +/−SEM, n=9-10 mice per group. Results only indicated if ANOVA p<0.05: *p<0.05, **p<0.01, ***p<0.001, #p<0.0001. Comparison with uninjured (no brackets), or vehicle or PYR 500 mg/kalday treated mice (brackets).
as §1
To determine whether there was also a dose-dependent effect of pyridoxamine at 500 and 1000 mg/kg/day on early renal injury after IR-AKI, mice were sacrificed on day 3 after injury (FIG. 5A) to evaluate renal injury and renal oxidative stress levels.

For data set [3] the test system is unchanged. Briefly: IR-AKI mice, pyridoxamine pre-treatment, renal fibrosis and injury markers 28 days after injury. Conditions: day 28 after injury. The method, then: FIG. 1. Dose dependent effects of pre-treatment with pyridoxamine (PYR) at 500 and 1000 mg/kg/day on renal fibrosis 28 days after I/R-AKI. (A) Experimental model. Mice underwent unilateral renal pedicle clamping (U-IR) followed by contralateral nephrectomy 8 days after the initial surgery. All mice were pre-treated for 3 days with either vehicle control, or PYR 500 and 1000 mg/kg/day in drinking water supplemented with 200 mg PYR twice a day (or vehicle) by oral gavage for 3 days after each surgical procedure.
Treatment was continued for 28 days at which point mice were sacrificed and kidney harvested for analysis. (B-D) Expression of renal fibrosis markers Col1α1, α-SMA and Col3α1 mRNA relative to Gapdh mRNA control. (E) Quantification of Sirius red stained (% total area). (F) Representative images for Sirius red stained tissues (outer medulla; scale bars, 50 μm). Results expressed as mean +/−SEM, n=9-10 mice per group. Results only indicated if ANOVA p<0.05: *p<0.05, **p<0.01, ***p<0.001, #p<0.0001. Comparison with uninjured controls (no brackets), or vehicle treated mice (brackets).
FIG. 2. Dose dependent effects of pre-treatment with PYR at 500 and 1000 mg/kg/day on markers of renal injury 28 days after UR-AM. Effect of PYR on Kim1 (A) and NGAL (B) mRNA on day 28 after injury. Results expressed as mean +/−SEM, n=9-10 mice per group. Results only indicated if ANOVA p<0.05: *p<0.05, **p<0.01, ***p<0.001, #p<0.0001. Comparison with uninjured controls (no brackets), or vehicle treated mice (brackets).
as §1
The injury models and treatments were administered as illustrated in FIG. 1A. Mice underwent unilateral renal pedicle clamping (LT-IR) followed by contralateral nephrectomy 8 days after the initial surgery. All mice were pre-treated for 3 days with either vehicle control, or PYR 500 and 1000 mg/kg/day in drinking water supplemented with 200 mg PYR twice a day (or vehicle) by oral gavage for 3 days after each surgical procedure. Treatment was continued for 28 days at which point mice were sacrificed and kidneys harvested for analysis.

Data set [4] can be described thus: Plasma pyridoxamine levels after I/R-AKI. Conditions: mice with IR-AKI; for average pyridoxamine plasma levels: 1000 mg/kg/day. The method, then: FIG. 6. Plasma PYR levels after I/R-AKI. (A) Mice underwent U-IR and were pre-treated for 3 days with vehicle control, PYR 500 mg/kg/day or PYR 1000 mg/kg/day in drinking water supplemented with 200 mg PYR twice a day (or vehicle) by oral gavage for 3 days after the surgical procedure. Evaluation of PYR plasma levels on Day 3 after injury. (B) Mice underwent U-IR followed by contralateral nephrectomy 8 days after the initial surgery. All mice were pre-treated with vehicle control, PYR 500 mg/kg/day or 1000 mg/kg/day in drinking water supplemented with 200 mg PYR twice a day (or vehicle) by oral gavage for 3 days after each surgical procedure. Treatment was continued for 28 days at which point mice underwent venesection for analysis of plasma PYR levels. Evaluation of PYR plasma levels on Day 28 after injury. Results expressed as mean +/−SEM, n=9-10 mice per group. Results only indicated if ANOVA p<0.05: *p<0.05, **p<0.01, ***p<0.001, #p<0.0001. Comparison with uninjured controls (no brackets), or vehicle or PYR 500 mg/kg/day treated mice (brackets).

Where [5] appears, read: pre-treatment 500 and 1000 mg/kg/day oral, kidney, vs vehicle.

`Cc1ncc(CO)c(CN)c1O` [pyridoxamine]: in data set [1], the “expression of injury marker Kim1” value is reported as “did not lower expression”, the “expression of injury marker NGAL” value was “did not lower expression”, the “expression of pro-fibrotic gene Col3α1 mRNA” value is reported as “lowered expression” and the “expression of pro-fibrotic gene αSMA mRNA” value was “lowered expression”. In data set [1], the “post-injury fibrosis (Sirius red staining)” value is recorded as “decreased post-injury fibrosis”. Besides, in data set [1] (listed as PYR), the “expression of injury marker Kim1” value is listed as “No effects”, the “expression of injury marker NGAL” value is reported as “No effects” and the “post-injury fibrosis (Sirius red staining)” value is on record as “Beneficial effects”. Besides, in data set [2] (outer medulla), the “histological tubular injury scores” value is “reduction”. In data set [2], the “renal NGAL mRNA expression” value is “significant, dose-dependent decrease” and the “renal levels of oxidative stress marker isofuran-to-isoprostane ratio” value is “reduction”. For the same compound, in data set [3] (setting [5]), the “expression of pro-fibrotic gene Col1α1 mRNA” value is recorded as “lowered expression”, the “expression of pro-fibrotic gene Col3α1 mRNA” value is on record as “lowered expression”, the “expression of pro-fibrotic gene αSMA mRNA” value is given as “lowered expression” and the “level of fibrosis (Sirius red staining)” value is “decreased level of fibrosis”. The “expression of renal injury marker Kim1” value in data set [3] (pre-treatment 500 and 1000 mg/kg/day) is on record as “lowered expression”. In addition, the “average pyridoxamine plasma levels” value in data set [4] (day 3) is about 6 µg/mL. The “average pyridoxamine plasma levels” value in data set [4] (day 28) is about 6 µg/mL. Besides, the “plasma pyridoxamine levels, dose dependence” value in data set [4] (500 vs 1000 mg/kg/day, days 3 and 28) is “dose-dependent increase”.

The values are drawn from patent US20170042869A1, “Methods for limiting acute kidney injury” (VANDERBILT UNIVERSITY, priority 2014, published 2017).
